Assay results taken from PubChem BioAssay AID1963864 (Molecular Pharmacology Branch, DTP, NCI, 2024).

Tested on: KRAS PDC multicell spheroid viability
Experiment: Anticancer human tumor 521955-158-R6-J3-PDC patient-derived pancreatic carcinoma cell line growth inhibition [KRAS2]
Settings: for IC50: curve of first compound; for viability, T/C: stronger effect = lower value
Method in brief: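 Combination screen of spheroid viability in tumor-cell co-cultures with endothelial (HUVEC) and mesenchymal stem cell stroma. Each agent was tested in half-log dilutions, topping at clinical Cmax or at 10 microM without a known Cmax.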

[1] = second compound 0.1 µM, first compound 0.01 µM
[2] = second compound 0.1 µM, first compound 0.0316 µM
[3] = second compound 0.1 µM, first compound 0.1 µM
[4] = second compound 0.1 µM, first compound 0.316 µM
[5] = second compound 0.1 µM, first compound 1 µM
[6] = second compound 0.1 µM, first compound 3.16 µM
[7] = second compound 0.316 µM, first compound 0.01 µM
[8] = second compound 0.316 µM, first compound 0.0316 µM
[9] = second compound 0.316 µM, first compound 0.1 µM
[10] = second compound 0.316 µM, first compound 0.316 µM
[11] = second compound 0.316 µM, first compound 1 µM
[12] = second compound 0.316 µM, first compound 3.16 µM
[13] = second compound 1 µM, first compound 0.01 µM
[14] = second compound 1 µM, first compound 0.0316 µM
[15] = second compound 1 µM, first compound 0.1 µM
[16] = second compound 1 µM, first compound 0.316 µM
[17] = second compound 1 µM, first compound 1 µM
[18] = second compound 1 µM, first compound 3.16 µM
[19] = second compound 3.16 µM, first compound 0.01 µM
[20] = second compound 3.16 µM, first compound 0.0316 µM
[21] = second compound 3.16 µM, first compound 0.1 µM
[22] = second compound 3.16 µM, first compound 0.316 µM
[23] = second compound 3.16 µM, first compound 1 µM
[24] = second compound 3.16 µM, first compound 3.16 µM
[25] = second compound 10 µM, first compound 0.01 µM
[26] = second compound 10 µM, first compound 0.0316 µM
[27] = second compound 10 µM, first compound 0.1 µM
[28] = second compound 10 µM, first compound 0.316 µM
[29] = second compound 10 µM, first compound 1 µM
[30] = second compound 10 µM, first compound 3.16 µM
[31] = second compound 0.1 µM, first compound 10 µM
[32] = second compound 0.316 µM, first compound 10 µM
[33] = second compound 1 µM, first compound 10 µM
[34] = second compound 3.16 µM, first compound 10 µM
[35] = second compound 10 µM, first compound 10 µM
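Also: drug exposure lasted seven days.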
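For viability, T/C in this document: 100% = DMSO vehicle wells and lower means fewer viable cells.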

CC1COCCN1c1cc(-c2ccnn2C)c2ccnc(-c3ccn[nH]3)c2n1 (stereo not given) + CNCc1ccccc1-c1csc(C(C)Nc2nc(C)nc3cc(OC)c(OC)cc23)c1
IC50 (second compound 0.1 µM): > 3.16 µM
IC50 (second compound 0.316 µM): > 3.16 µM
IC50 (second compound 1 µM): > 3.16 µM
IC50 (second compound 3.16 µM): < 0.01 µM
IC50 (second compound 10 µM): < 0.01 µM
viability, T/C [1]: 83.9%
viability, T/C [2]: 90.4%
viability, T/C [3]: 80.4%
viability, T/C [4]: 76.2%
viability, T/C [5]: 64.4%
viability, T/C [6]: 81.2%
viability, T/C [7]: 79.5%
viability, T/C [8]: 70.4%
viability, T/C [9]: 71%
viability, T/C [10]: 57.9%
viability, T/C [11]: 69.3%
viability, T/C [12]: 68.4%
viability, T/C [13]: 68.6%
viability, T/C [14]: 63.3%
viability, T/C [15]: 58.1%
viability, T/C [16]: 47.3%
viability, T/C [17]: 55.1%
viability, T/C [18]: 63.7%
viability, T/C [19]: 0.45%
viability, T/C [20]: 0.29%
viability, T/C [21]: 1.4%
viability, T/C [22]: 0.26%
viability, T/C [23]: 0.42%
viability, T/C [24]: 0.43%
viability, T/C [25]: 0.19%
viability, T/C [26]: 0.19%
viability, T/C [27]: 0.21%
viability, T/C [28]: 0.16%
viability, T/C [29]: 0.17%
viability, T/C [30]: 0.3%

CC1OCC2(CCN(c3cnc(Sc4ccnc(N)c4Cl)c(N)n3)CC2)C1N (stereo not given) + CNCc1ccccc1-c1csc(C(C)Nc2nc(C)nc3cc(OC)c(OC)cc23)c1
IC50 (second compound 0.1 µM): > 10 µM
IC50 (second compound 0.316 µM): > 10 µM
IC50 (second compound 1 µM): > 10 µM
IC50 (second compound 3.16 µM): < 0.0316 µM
IC50 (second compound 10 µM): < 0.0316 µM
viability, T/C [2]: 83.1%
viability, T/C [3]: 73.2%
viability, T/C [4]: 73.5%
viability, T/C [5]: 81.8%
viability, T/C [6]: 105%
viability, T/C [31]: 100%
viability, T/C [8]: 83.7%
viability, T/C [9]: 80.3%
viability, T/C [10]: 70%
viability, T/C [11]: 72.7%
viability, T/C [12]: 92.2%
viability, T/C [32]: 105%
viability, T/C [14]: 67.3%
viability, T/C [15]: 67%
viability, T/C [16]: 66.5%
viability, T/C [17]: 72%
viability, T/C [18]: 90%
viability, T/C [33]: 67.3%
viability, T/C [20]: 0.42%
viability, T/C [21]: 0.24%
viability, T/C [22]: 0.25%
viability, T/C [23]: 0.33%
viability, T/C [24]: 1.07%
viability, T/C [34]: 0.41%
viability, T/C [26]: 0.23%
viability, T/C [27]: 0.26%
viability, T/C [28]: 0.26%
viability, T/C [29]: 0.17%
viability, T/C [30]: 0.22%
viability, T/C [35]: 0.27%

CCNC(=O)CC1N=C(c2ccc(Cl)cc2)c2cc(OC)ccc2-n2c(C)nnc21 (stereo not given) + CNCc1ccccc1-c1csc(C(C)Nc2nc(C)nc3cc(OC)c(OC)cc23)c1
IC50 (second compound 0.1 µM): > 10 µM
IC50 (second compound 0.316 µM): > 10 µM
IC50 (second compound 1 µM): > 10 µM
IC50 (second compound 3.16 µM): < 0.0316 µM
IC50 (second compound 10 µM): < 0.0316 µM
viability, T/C [2]: 96.3%
viability, T/C [3]: 90.5%
viability, T/C [4]: 67.6%
viability, T/C [5]: 69.5%
viability, T/C [6]: 68.1%
viability, T/C [31]: 73.8%
viability, T/C [8]: 82.3%
viability, T/C [9]: 71.9%
viability, T/C [10]: 72.4%
viability, T/C [11]: 61%
viability, T/C [12]: 65.8%
viability, T/C [32]: 69.5%
viability, T/C [14]: 71.3%
viability, T/C [15]: 62%
viability, T/C [16]: 61.6%
viability, T/C [17]: 62.8%
viability, T/C [18]: 74.3%
viability, T/C [33]: 73%
viability, T/C [20]: 0.29%
viability, T/C [21]: 0.34%
viability, T/C [22]: 0.34%
viability, T/C [23]: 0.43%
viability, T/C [24]: 0.28%
viability, T/C [34]: 0.8%
viability, T/C [26]: 0.2%
viability, T/C [27]: 0.18%
viability, T/C [28]: 0.16%
viability, T/C [29]: 0.17%
viability, T/C [30]: 0.21%
viability, T/C [35]: 0.28%

CC(=O)OC12COC1CC(O)C1(C)C(=O)C(O)C3=C(C)C(OC(=O)C(O)C(NC(=O)OC(C)(C)C)c4ccccc4)CC(O)(C(OC(=O)c4ccccc4)C21)C3(C)C (stereo not given) + COc1cc2nc(C)nc(NC(C)c3cc(N)cc(C(F)(F)F)c3)c2cc1OC1CCOC1
IC50 (second compound 0.1 µM): > 3.16 µM
IC50 (second compound 0.316 µM): > 3.16 µM
IC50 (second compound 1 µM): > 3.16 µM
IC50 (second compound 3.16 µM): > 3.16 µM
IC50 (second compound 10 µM): > 3.16 µM
viability, T/C [1]: 78.7%
viability, T/C [2]: 74.6%
viability, T/C [3]: 69.7%
viability, T/C [4]: 77.8%
viability, T/C [5]: 85.7%
viability, T/C [6]: 114%
viability, T/C [7]: 66.3%
viability, T/C [8]: 66.5%
viability, T/C [9]: 70.2%
viability, T/C [10]: 60.3%
viability, T/C [11]: 90.7%
viability, T/C [12]: 117%
viability, T/C [13]: 75.6%
viability, T/C [14]: 67.3%
viability, T/C [15]: 66.5%
viability, T/C [16]: 78.5%
viability, T/C [17]: 86.2%
viability, T/C [18]: 106%
viability, T/C [19]: 52.6%
viability, T/C [20]: 61.3%
viability, T/C [21]: 55.7%
viability, T/C [22]: 70%
viability, T/C [23]: 111%
viability, T/C [24]: 120%
viability, T/C [25]: 68.5%
viability, T/C [26]: 62.2%
viability, T/C [27]: 72.6%
viability, T/C [28]: 84.6%
viability, T/C [29]: 102%
viability, T/C [30]: 120%
